Data as given in patent US11584765B2 (priority 2017, dated 2023).

System: C57BL/6 mice
Assay: animal or person
Format: in vivo
Conditions: Mus musculus, sc, 0.5 h, s.c. administration, 30 min, 55° C. water, read-out: ED50 (mg/kg) at 30 min on C57BL/6 mice in Warm-water Tail-flick Test

| SMILES | ED50 |
| --- | --- |
| CCOCC1(CCc2cccnc2)CCN(C(C)c2ccc(C)nc2)C1 (centres unmarked) [Compound 350, 5-(1-(3-(ethoxymethyl)-3-(2-(pyridin-3-yl)ethyl)pyrrolidin-1-yl)ethyl)-2-methylpyridine] | < 10 mg/kg |
| CCOCC1(CCc2ncccn2)CCN(C(C)c2ccc(C)nc2)C1 (centres unmarked) [Compound 351, 2-(2-(3-(ethoxymethyl)-1-(1-(6-methylpyridin-3-yl)ethyl)pyrrolidin-3-yl)ethyl)pyrimidine] | < 10 mg/kg |
| CCOC[C@]1(CCc2ccsc2)CCN(C(C)(C)c2ccc(C)nc2)C1 [Compound 352, (R)-5-(2-(3-(ethoxymethyl)-3-(2-(thiophen-3-yl)ethyl)pyrrolidin-1-yl)propan-2-yl)-2-methylpyridine] | < 10 mg/kg |
| CCOC[C@@]1(CCc2cccs2)CCN(C(C)(C)c2ccc(C)nc2)C1 [Compound 353, (S)-5-(2-(3-(ethoxymethyl)-3-(2-(thiophen-2-yl)ethyl)pyrrolidin-1-yl)propan-2-yl)-2-methylpyridine] | < 10 mg/kg |
| CCOC[C@@]1(CCc2csc(C)c2)CCN(C(C)(C)c2ccc(C)nc2)C1 [Compound 354, (S)-5-(2-(3-(ethoxymethyl)-3-(2-(5-methylthiophen-3-yl)ethyl)pyrrolidin-1-yl)propan-2-yl)-2-methylpyridine] | < 10 mg/kg |
| CCOC[C@@]1(CCc2cc(C)cs2)CCN(C(C)(C)c2ccc(C)nc2)C1 [Compound 355, (S)-5-(2-(3-(ethoxymethyl)-3-(2-(4-methylthiophen-2-yl)ethyl)pyrrolidin-1-yl)propan-2-yl)-2-methylpyridine] | < 10 mg/kg |
| CCOC[C@@]1(CCc2ccsc2)CCN(C(C)(C)c2ccc(C)nc2)C1 [Compound 356, (S)-5-(2-(3-(ethoxymethyl)-3-(2-(thiophen-3-yl)ethyl)pyrrolidin-1-yl)propan-2-yl)-2-methylpyridine] | < 10 mg/kg |
| CCOCC1(CCc2cnccn2)CCN(C(C)c2ccc(C)nc2)C1.Cl (centres unmarked) [Compound 357, 2-(2-(3-(ethoxymethyl)-1-(1-(6-methylpyridin-3-yl)ethyl)pyrrolidin-3-yl)ethyl)pyrazine HCl] | < 10 mg/kg |
| CCOCC1(CCc2nccn2C)CCN(C(C)c2ccc(C)nc2)C1 (centres unmarked) [Compound 358, 5-(1-(3-(ethoxymethyl)-3-(2-(1-methyl-1H-imidazol-2-yl)ethyl)pyrrolidin-1-yl)ethyl)-2-methylpyridine] | > 10 mg/kg |
| CCOC[C@@]1(CCc2ccccn2)CCN(C(C)(C)c2ccc(C)nc2)C1 [Compound 359, (S)-5-(2-(3-(ethoxymethyl)-3-(2-(pyridin-2-yl)ethyl)pyrrolidin-1-yl)propan-2-yl)-2-methylpyridine] | < 10 mg/kg |
| CCOC[C@@]1(CCc2ncccn2)CCN(C(C)(C)c2ccc(C)nc2)C1 [Compound 360, (S)-2-(2-(3-(ethoxymethyl)-1-(2-(6-methylpyridin-3-yl)propan-2-yl)pyrrolidin-3-yl)ethyl)pyrimidine] | < 10 mg/kg |
| CCOC[C@@]1(CCc2ccnc(OC)c2)CCN(C(C)(C)c2ccc(C)nc2)C1.Cl [Compound 361, (S)-4-(2-(3-(ethoxymethyl)-1-(2-(6-methylpyridin-3-yl)propan-2-yl)pyrrolidin-3-yl)ethyl)-2-methoxypyridine HCl] | < 10 mg/kg |
| CCOC[C@@]1(CCc2cc3c(s2)CCC3)CCN(C(C)(C)c2ccc(C)nc2)C1.Cl [Compound 362, (S)-5-(2-(3-(2-(5,6-dihydro-4H-cyclopenta[b]thiophen-2-yl)ethyl)-3-(ethoxy-methyl)pyrrolidin-1-yl)propan-2-yl)-2-methylpyridine HCl] | < 10 mg/kg |
| CCOC[C@@]1(CCc2nccs2)CCN(C(C)(C)c2ccc(C)nc2)C1 [Compound 363, (S)-2-(2-(3-(ethoxymethyl)-1-(2-(6-methylpyridin-3-yl)propan-2-yl)pyrrolidin-3-yl)ethyl)thiazole] | < 10 mg/kg |
| CCOC[C@@]1(CCc2ccc(F)cc2)CCN(C(C)(C)c2ccc(C)nc2)C1 [Compound 364, (S)-5-(2-(3-(ethoxymethyl)-3-(4-fluoro-phenethyl)pyrrolidin-1-yl)propan-2-yl)-2-methylpyridine] | < 10 mg/kg |
| CCOC[C@@]1(CCc2ccc(F)s2)CCN(C(C)(C)c2ccc(C)nc2)C1 [Compound 365, (S)-5-(2-(3-(ethoxymethyl)-3-(2-(5-fluorothiophen-2-yl)ethyl)pyrrolidin-1-yl)propan-2-yl)-2-methylpyridine] | < 10 mg/kg |
| CCOC[C@@]1(CCc2ccccc2)CCN(C(C)(C)c2ccc(C)nc2)C1 [Compound 366, (S)-5-(2-(3-(ethoxymethyl)-3-phenethylpyrrolidin-1-yl)propan-2-yl)-2-methylpyridine] | < 10 mg/kg |
| CCOC[C@@]1(CCc2cc[nH]c(=O)c2)CCN(C(C)(C)c2ccc(C)nc2)C1.Cl [Compound 367, (S)-4-(2-(3-(ethoxymethyl)-1-(2-(6-methylpyridin-3-yl)propan-2-yl)pyrrolidin-3-yl)ethyl)pyridin-2(1H)-one HCl] | < 10 mg/kg |
| Cc1ccc(C(C)(C)N2CC[C@@](CO)(CCc3cc[nH]c(=O)c3)C2)cn1.Cl [Compound 368, (S)-4-(2-(3-(hydroxymethyl)-1-(2-(6-methylpyridin-3-yl)propan-2-yl)pyrrolidin-3-yl)ethyl)pyridin-2(1H)-one HCl] | < 10 mg/kg |

| SMILES | ED50 |
| --- | --- |
| COc1cc(CC[C@]2(CO)CCN(C(C)(C)c3ccc(C)nc3)C2)ccn1.Cl [Compound 369, (S)-(3-(2-(2-methoxypyridin-4-yl)ethyl)-1-(2-(6-methylpyridin-3-yl)propan-2-yl)pyrrolidin-3-yl)methanol HCl] | < 10 mg/kg |
| CCOC[C@@]1(CCc2ccc(OC)nc2)CCN(C(C)(C)c2ccc(C)nc2)C1.Cl [Compound 370, (S)-5-(2-(3-(ethoxymethyl)-1-(2-(6-methylpyridin-3-yl)propan-2-yl)pyrrolidin-3-yl)ethyl)-2-methoxypyridine HCl] | < 10 mg/kg |
| CCOC[C@@]1(CCc2cccnc2)CCN(C(C)(C)c2ccc(C)nc2)C1 [Compound 371, (S)-5-(2-(3-(ethoxymethyl)-3-(2-(pyridin-3-yl)ethyl)pyrrolidin-1-yl)propan-2-yl)-2-methylpyridine] | < 10 mg/kg |
| CCOC[C@@]1(CCc2ccc(F)cn2)CCN(C(C)(C)c2ccc(C)nc2)C1 [Compound 372, (S)-2-(2-(3-(ethoxymethyl)-1-(2-(6-methylpyridin-3-yl)propan-2-yl)pyrrolidin-3-yl)ethyl)-5-fluoropyridine] | < 10 mg/kg |
| CCOC[C@@]1(CCc2ccc(C)s2)CCN(C(C)(C)c2ccc(C)nc2)C1 [Compound 373, (S)-5-(2-(3-(ethoxymethyl)-3-(2-(5-methylthiophen-2-yl)ethyl)pyrrolidin-1-yl)propan-2-yl)-2-methylpyridine] | < 10 mg/kg |
| CCOCC1(CCc2cc(C)sc2C)CCN(C2(c3ccc(C)nc3)CC2)C1 (centres unmarked) [Compound 374, 5-(1-(3-(2-(2,5-dimethylthiophen-3-yl)ethyl)-3-(ethoxy-methyl)pyrrolidin-1-yl)cyclopropyl)-2-methylpyridine] | < 10 mg/kg |
| CCOC[C@@]1(CCc2nccc(=O)[nH]2)CCN(C(C)(C)c2ccc(C)nc2)C1 [Compound 375, (S)-2-(2-(3-(ethoxymethyl)-1-(2-(6-methylpyridin-3-yl)propan-2-yl)pyrrolidin-3-yl)ethyl)pyrimidin-4(3H)-one] | < 10 mg/kg |
| CCOC[C@@]1(CCc2ccc(=O)[nH]c2)CCN(C(C)(C)c2ccc(C)nc2)C1.Cl [Compound 376] | < 10 mg/kg |
| CCOC[C@@]1(CCc2nccc(OC)n2)CCN(C(C)(C)c2ccc(C)nc2)C1.Cl [Compound 377, (S)-2-(2-(3-(ethoxymethyl)-1-(2-(6-methylpyridin-3-yl)propan-2-yl)pyrrolidin-3-yl)ethyl)-4-methoxypyrimidine HCl] | < 10 mg/kg |
| CCOC[C@@]1(CCc2cccs2)CCN(C(C)c2cnn(C)c2C)C1 (stereo partly drawn) [Compound 378, 4-(1-((S)-3-(ethoxymethyl)-3-(2-(thiophen-2-yl)ethyl)pyrrolidin-1-yl)ethyl)-1,5-dimethyl-1H-pyrazole] | < 10 mg/kg |
| CCOC[C@@]1(CCc2cccs2)CCN(C2(c3ccc(C)nc3)CC2)C1 [Compound 379, (S)-5-(1-(3-(ethoxymethyl)-3-(2-(thiophen-2-yl)ethyl)pyrrolidin-1-yl)cyclopropyl)-2-methylpyridine] | < 10 mg/kg |
| CCOC[C@@]1(CCc2ccc(F)cn2)CCN(C(=O)c2ccc(C)nc2)C1 [Compound 380, (S)-(3-(ethoxymethyl)-3-(2-(5-fluoropyridin-2-yl)ethyl)pyrrolidin-1-yl)(6-methylpyridin-3-yl)methanone] | > 10 mg/kg |
| COC[C@@]1(CCc2csc(C)c2)CCN(C(=O)c2ccc(C)nc2)C1 [Compound 381, (S)-(3-(methoxymethyl)-3-(2-(5-methylthiophen-3-yl)ethyl)pyrrolidin-1-yl)(6-methylpyridin-3-yl)methanone] | > 10 mg/kg |
| CCOC[C@@]1(CCc2nncn2C)CCN(C(=O)c2ccc(C)nc2)C1 [Compound 382] | > 10 mg/kg |
| COC[C@@]1(CCc2csc(C)c2)CCN(C(C)(C)c2ccc(C)nc2)C1 [Compound 383, (S)-5-(2-(3-(methoxymethyl)-3-(2-(5-methylthiophen-3-yl)ethyl)pyrrolidin-1-yl)propan-2-yl)-2-methylpyridine] | < 10 mg/kg |
| CCOC[C@@]1(CCc2ccsc2)CCN(Cc2cnn(C)c2)C1.Cl [Compound 384, (S)-4-((3-(ethoxymethyl)-3-(2-(thiophen-3-yl)ethyl)pyrrolidin-1-yl)methyl)-1-methyl-1H-pyrazole HCl] | < 10 mg/kg |
| CCOC[C@@]1(CCc2cscc2C)CCN(Cc2cccnc2)C1 [Compound 385, (S)-3-((3-(ethoxymethyl)-3-(2-(4-methylthiophen-3-yl)ethyl)pyrrolidin-1-yl)methyl)pyridine] | < 10 mg/kg |
| CCOC[C@@]1(CCc2cccs2)CCN(C(C)(C)c2cnn(C)c2)C1.Cl [Compound 386, (S)-4-(2-(3-(ethoxymethyl)-3-(2-(thiophen-2-yl)ethyl)pyrrolidin-1-yl)propan-2-yl)-1-methyl-1H-pyrazole HCl] | < 10 mg/kg |
| CCOC[C@@]1(CCc2ccsc2)CCN(C(C)c2cccnc2)C1 (stereo partly drawn) [Compound 387, 3-(1-((S)-3-(ethoxymethyl)-3-(2-(thiophen-3-yl)ethyl)pyrrolidin-1-yl)ethyl)pyridine] | < 10 mg/kg |
